Measurements from ChEMBL document CHEMBL3627688, “Structure-based hybridization, synthesis and biological evaluation of novel tetracyclic heterocyclic azathioxanthone analogues as potential antitumor agents” (Eur J Med Chem, 2015).

Legend:
[1] = Growth inhibition of human NCI-ADR-RES cells assessed as cell growth at 10 uM incubated for 48 hrs by sulforhodamine B assay; type: functional; details: read-out: Activity
[2] = Growth inhibition of human HOP92 cells assessed as cell growth at 10 uM incubated for 48 hrs by sulforhodamine B assay; type: functional; details: HOP-92, 48 h, read-out: Activity
[3] = Growth inhibition of human EKVX cells assessed as cell growth at 10 uM incubated for 48 hrs by sulforhodamine B assay; type: functional; details: read-out: Activity
SR = assay: Growth inhibition of human SR cells assessed as cell growth at 10 uM incubated for 48 hrs by sulforhodamine B assay; type: functional; details: read-out: Activity
ACHN = assay: Growth inhibition of human ACHN cells assessed as cell growth at 10 uM incubated for 48 hrs by sulforhodamine B assay; type: functional; details: read-out: Activity
MCF7 = assay: Growth inhibition of human MCF7 cells assessed as cell growth at 10 uM incubated for 48 hrs by sulforhodamine B assay; type: functional; details: MCF7, 48 h, read-out: Activity
[4] = Growth inhibition of human BT549 cells assessed as cell growth at 10 uM incubated for 48 hrs by sulforhodamine B assay; type: functional; details: BT-549, 48 h, read-out: Activity
HL-60(TB) = assay: Growth inhibition of human HL-60(TB) cells assessed as cell growth at 10 uM incubated for 48 hrs by sulforhodamine B assay; type: functional; details: HL-60, 48 h, read-out: Activity
DU-145 = assay: Growth inhibition of human DU145 cells assessed as cell growth at 10 uM incubated for 48 hrs by sulforhodamine B assay; type: functional; details: DU-145, 48 h, read-out: Activity
NCI-H322M = assay: Growth inhibition of human NCI-H322M cells assessed as cell growth at 10 uM incubated for 48 hrs by sulforhodamine B assay; type: functional; details: read-out: Activity
[5] = Growth inhibition of human RXF393 cells assessed as cell growth at 10 uM incubated for 48 hrs by sulforhodamine B assay; type: functional; details: RXF 393, 48 h, read-out: Activity
[6] = Growth inhibition of human NCI60 cells assessed as cell growth at 10 uM incubated for 48 hrs by sulforhodamine B assay; type: functional; details: NCI60, 48 h, read-out: Activity
SK-MEL-5 = assay: Growth inhibition of human SK-MEL-5 cells assessed as cell growth at 10 uM incubated for 48 hrs by sulforhodamine B assay; type: functional; details: SK-MEL-5, 48 h, read-out: Activity
OVCAR-4 = assay: Growth inhibition of human OVCAR4 cells assessed as cell growth at 10 uM incubated for 48 hrs by sulforhodamine B assay; type: functional; details: OVCAR-4, 48 h, read-out: Activity
[7] = Growth inhibition of human RPMI8226 cells assessed as cell growth at 10 uM incubated for 48 hrs by sulforhodamine B assay; type: functional; details: RPMI-8226, 48 h, read-out: Activity
NCI-H522 = assay: Growth inhibition of human NCI-H522 cells assessed as cell growth at 10 uM incubated for 48 hrs by sulforhodamine B assay; type: functional; details: NCI-H522, 48 h, read-out: Activity
SNB-19 = assay: Growth inhibition of human SNB19 cells assessed as cell growth at 10 uM incubated for 48 hrs by sulforhodamine B assay; type: functional; details: SNB-19, 48 h, read-out: Activity
M14 = assay: Growth inhibition of human M14 cells assessed as cell growth at 10 uM incubated for 48 hrs by sulforhodamine B assay; type: functional; details: M14, 48 h, read-out: Activity
HCT-116 = assay: Growth inhibition of human HCT116 cells assessed as cell growth at 10 uM incubated for 48 hrs by sulforhodamine B assay; type: functional; details: HCT-116, 48 h, read-out: Activity
KM12 = assay: Growth inhibition of human KM12 cells assessed as cell growth at 10 uM incubated for 48 hrs by sulforhodamine B assay; type: functional; details: KM12, 48 h, read-out: Activity
PC-3 = assay: Antiproliferative activity against human PC3 cells assessed as cell viability incubated for 72 hrs by MTT assay; type: functional, cell-based; details: PC-3, 72 h
HCT-15 = assay: Growth inhibition of human HCT15 cells assessed as cell growth at 10 uM incubated for 48 hrs by sulforhodamine B assay; type: functional; details: HCT-15, 48 h, read-out: Activity
786-0 = assay: Growth inhibition of human 786-0 cells assessed as cell growth at 10 uM incubated for 48 hrs by sulforhodamine B assay; type: functional; details: 786-0, 48 h, read-out: Activity
UACC-62 = assay: Growth inhibition of human UACC62 cells assessed as cell growth at 10 uM incubated for 48 hrs by sulforhodamine B assay; type: functional; details: UACC-62, 48 h, read-out: Activity
OVCAR-8 = assay: Growth inhibition of human OVCAR8 cells assessed as cell growth at 10 uM incubated for 48 hrs by sulforhodamine B assay; type: functional; details: OVCAR-8, 48 h, read-out: Activity
SK-OV-3 = assay: Growth inhibition of human SKOV3 cells assessed as cell growth at 10 uM incubated for 48 hrs by sulforhodamine B assay; type: functional; details: SK-OV-3, 48 h, read-out: Activity
A498 = assay: Growth inhibition of human A498 cells assessed as cell growth at 10 uM incubated for 48 hrs by sulforhodamine B assay; type: functional; details: A498, 48 h, read-out: Activity

SMILES | growth at 10 µM [1] [%] | growth at 10 µM [2] [%] | growth at 10 µM (SR) [%] | growth at 10 µM (ACHN) [%] | growth at 10 µM (MCF7) [%] | growth at 10 µM [4] [%] | growth at 10 µM (HL-60(TB)) [%] | growth at 10 µM (DU-145) [%] | growth at 10 µM (NCI-H322M) [%] | growth at 10 µM [5] [%] | growth at 10 µM [6] [%] | growth at 10 µM (SK-MEL-5) [%] | growth at 10 µM (OVCAR-4) [%] | growth at 10 µM [7] [%] | growth at 10 µM (NCI-H522) [%] | growth at 10 µM (SNB-19) [%] | growth at 10 µM (M14) [%] | growth at 10 µM (HCT-116) [%] | growth at 10 µM (KM12) [%] | IC50 (PC-3) [µM] | also measured
O=C(O)c1c(Sc2ccc(Cl)cc2)c(O)nc2ccccc12 | 97.8 | 73 | 106 | 113 | 92 | 124 | 106 | 115 | 101 | 114 | 102 | 98.1 | 98.4 | 98.1 | 81.6 | 97.2 | 107 | 104 | 113 | > 15 | growth at 10 µM [3]: 89.5%; growth at 10 µM (HCT-15): 108%; growth at 10 µM (786-0): 104%; growth at 10 µM (UACC-62): 102%; growth at 10 µM (OVCAR-8): 115%
O=c1c2ccc(Cl)cc2sc2c(Cl)nc3ccccc3c12 | 103 | 90.8 | 89 | 86.8 | 82.6 | 110 | 99.3 | 114 | 100 | 103 | 98.1 | 97.4 | 87.9 | 100 | 96.8 | 108 | 106 | 102 | 111 | > 15 | growth at 10 µM (SK-OV-3): 101%; growth at 10 µM (HCT-15): 102%; growth at 10 µM (786-0): 105%; growth at 10 µM (UACC-62): 89.7%; growth at 10 µM (A498): 106%; growth at 10 µM (OVCAR-8): 102%
